Literature values, collected in US20240261236A1, “METHODS OF USING NMDA RECEPTOR ANTAGONISTS” (Seelos Therapeutics, Inc., priority 2021, published 2024).

Tests used:
[1] = Leung and Baillie 1986; cited from earlier work
NMDA receptor = conditions: binds to the NMDA receptor; Moaddel et al. 2013; cited from earlier work
[2] = 56 mg or 84 mg doses; Spravato label; cited from earlier work
[3] = 56 mg or 84 mg dose; Spravato label; cited from earlier work

| Structure (SMILES) | Ki (NMDA receptor) | further results |
| --- | --- | --- |
| NC1(c2ccccc2Cl)CCCC(O)C1=O (centres unmarked) [6-hydroxynorketamine] |  | anesthetic activity [1]: no anesthetic or locomotor activity |
| N[C@@]1(c2ccccc2Cl)CCC[C@@H](O)C1=O [(2R,6R)-hydroxynorketamine] | > 100 µM |  |
| N[C@]1(c2ccccc2Cl)CCC[C@H](O)C1=O [(2S,6S)-hydroxynorketamine] | ~21.2 µM |  |
| N[C@@]1(c2ccccc2Cl)CCCCC1=O [(R)-norketamine] | ~26.5 µM |  |
| CN[C@]1(c2ccccc2Cl)CCCCC1=O [(S)-ketamine, (S)-2-(2-chlorophenyl)-2-(methylamino)cyclohexanone] |  | patients who developed dissociative changes on the CADSS assessment [2]: 61%-69%; subjects who developed sedation [3]: 48-61% |
| N[C@]1(c2ccccc2Cl)CCCCC1=O [(S)-norketamine] | ~2.25 µM |  |
| NC1(c2ccccc2Cl)CCCCC1=O (centres unmarked) [norketamine] |  | anesthetic activity [1]: anesthetic activity |
